The values that follow come from patent US20110052723A1, “USE OF COMPOUNDS BINDING TO THE SIGMA RECEPTOR LIGANDS FOR THE TREATMENT OF NEUROPATHIC PAIN DEVELOPING AS A CONSEQUENCE OF CHEMOTHERAPY” (priority 2008, published 2011).

In series [1] the test system is CD-1 mice. The experiment in a line: Paclitaxel-induced mechanical allodynia, Von Frey test. It counts as in vivo. The method, then: Procedure for assessment of mechanical allodynia. To assess mechanical allodynia, paw withdrawal thresholds were measured using a Dynamic Plantar Aesthesiometer (Ugo Basile, Italy). The electronic Von Frey device employs a single nonflexible filament which applies a progressively increasing force (from 0 to 10 g) against the plantar surface of the hind paw over a 20 s period. […] The day of the experiment, mice were placed individually in test compartments (9×9×14 cm) with a wire mesh bottom and allowed to acclimatize to them for 2 h. After habituation, each mouse was tested three times alternately in each hind paw.

In series [2] the test system is CD-1 mice. The experiment in a line: Paclitaxel-induced cold allodynia, acetone test.
Experimental: Experiments were performed in CD-1 mice (Charles River, U.S.A.) with at least n=10/experimental group. […] Control animals received the same volume of solvent (a mixture of ethanol and cremophor EL)
Mechanical allodynia was evaluated with an electronically driven Von Frey filament (Dynamic Plantar Aesthesiometer, Ugo Basile, Varese, Italy) as previously described (Nieto et al., 2008), and cold allodynia was evaluated using the acetone drop method (Polomano et al., 2001; Smith et al., 2004).
In addition, in order to study the influence of the sigma 1 receptor in this process the difference in development of allodynia was determined using wild-type mice and sigma 1-receptor knock-out-mice.
Therefore, the cumulative dose was 10 mg/kg per mouse.
BD-1063 was dissolved in normal saline just before administration and applied at doses of 8, 16, 32 or 64 mg/kg subcutaneously.
The response of the animals to the different nociceptive stimuli was tested subsequently during 2-4 weeks, depending on the test (see below), without any additional treatment. Each animal was tested only in one nociceptive model. […] Each animal received only one dose of BD-1063 and was tested in only one nociceptive model.
Procedure for assessment of cold allodynia. Cold allodynia was tested as previously described by Smith et al., 2004, by gently touching the plantar skin of the hind paws with an acetone bubble formed with a syringe connected to a thin polyethylene tube. The mice were housed and habituated for 30 min in transparent plastic boxes (7×7×13 cm) with a floor made of wire mesh. After the adaptation period, acetone was applied alternately three times to each paw at intervals of 30 s, and the duration and frequency of licking or biting were recorded. A small mirror was placed behind the chambers to allow clear observation of the paws. The time spent licking or biting the paw was recorded by a stopwatch and represented as the cumulative time of licking/biting in the six measurements. Since licking persisting more than 10 s in the experiments was very unusual, a cut-off time of 10 s was used for each trial.
Therefore, the day 10, after the habituation period to the apparatus, baseline latencies were recorded, 30 min later BD-1063 or saline was injected s.c. and paw withdrawal latencies were assessed again 30, 60, 90, 120 and 180 minutes after the injection.
The test system of a further series is patients. To be noted: paclitaxel 135 mg/m^2; cited from earlier work.
For the next series, the system named is sigma receptor. To be noted: Sigma 1 and Sigma 2; cited from earlier work.
[3] abbreviates: sigma-1-receptor knockout animals, paclitaxel 2 mg/kg i.p. once daily during 5 days.
The mark [4] stands for this setting: wild-type animals, paclitaxel 2 mg/kg i.p. once daily during 5 days.

For the compound `CN1CCN(CCc2ccc(Cl)c(Cl)c2)CC1` [BD-1063], the “expression of paclitaxel-induced mechanical allodynia (threshold force for paw withdrawal)” value with CD-1 mice [1] (single s.c. injection on day 10, 32 or 64 mg/kg, dose-dependent, significantly different from saline) is “inhibited the expression of paclitaxel-induced mechanical allodynia”. The “development of paclitaxel-induced cold allodynia (duration of hind paw licking/biting)” value in the series on CD-1 mice [2] (BD-1063 32 mg/kg 30 min before each paclitaxel injection (2 mg/kg i.p.), days 1 to 5, tested to day 24) is listed as “inhibited the development of cold allodynia”. In addition, the “expression of paclitaxel-induced cold allodynia (duration of hind paw licking/biting)” value in the series on CD-1 mice [2] (single s.c. injection on day 10, 8, 16, 32 or 64 mg/kg, dose-dependent, significantly different from saline) is “inhibited the expression of paclitaxel-induced cold allodynia”.
Regarding `CC(=O)O[C@H]1C(=O)[C@@]2(C)[C@H]([C@H](OC(=O)c3ccccc3)[C@]3(O)C[C@H](OC(=O)[C@H](O)[C@@H](NC(=O)c4ccccc4)c4ccccc4)C(C)=C1C3(C)C)[C@]1(OC(C)=O)CO[C@@H]1C[C@@H]2O` [paclitaxel, Paclitaxel], the “mechanical allodynia (threshold force for paw withdrawal) on day 10” value with CD-1 mice [1] (paclitaxel 2 mg/kg i.p. during 5 days, vs pre-treatment and vehicle) was “induced mechanical allodynia”. In addition, in the series with CD-1 mice [1] (setting [3]), the paclitaxel-induced mechanical allodynia entry is “not significantly expressed”. Further, in the series with CD-1 mice [1] (treated with paclitaxel), the “animals showing a reduction of the mechanical threshold” value stood at 96%. Also, the “time of maximal paclitaxel-induced mechanical allodynia after the first injection” value with CD-1 mice [1] (setting [4]) amounted to 10 days. The “patients progressing to dose-limiting neurotoxicity” value in the series on patients is on record as 0%. The “time of maximal paclitaxel-induced cold allodynia after the first injection” value in the series with CD-1 mice [2] (control mice, paclitaxel 2 mg/kg i.p. once daily during 5 days) was 10 to 14 days; in the series on CD-1 mice [2] (setting [4]), 10 days. Further, the “animals with significantly increased time licking/biting the stimulated paw (paclitaxel-responder animals)” value with CD-1 mice [2] (paclitaxel 2 mg/kg i.p. once daily during 5 days) worked out at 67%. For the same compound, in the series on CD-1 mice [2] (setting [3]), the paclitaxel-induced cold allodynia result is given as “not significantly expressed”.
In the case of `CC(C)=CCN1CCC2(C)c3cc(O)ccc3CC1C2C` (stereo not shown) [pentazocine], in the series with sigma receptor, the “affinity of the sigma receptors to analgesics” value is recorded as “very high affinity”.
